In ChEMBL document CHEMBL5579874, “Design, Synthesis, and Biological Evaluation of 2,4-Diaminopyrimidine Derivatives as Potent CDK7 Inhibitors” (ACS Med Chem Lett, 2024) one finds IC50 data, which are given here for four compounds.

Assay [1] has as its target Cyclin-dependent kinase 9 (Homo sapiens, UniProt P50750).
Description: Inhibition of CDK9 (unknown origin) using ULight 4EBP1 peptide as substrate incubated for 2 hrs by FRET assay
In assay [2] the test system is MV4-11. Description: Antiproliferative activity against human MV4-11 cells assessed as inhibition of cell growth incubated for 72 hrs by CCK-8 assay. The note with it: MV4-11, 72 h. Type of assay: functional, cell-based.
The target of assay [3] is Cyclin-dependent kinase 7 (Homo sapiens, UniProt P50613). In words: Inhibition of CDK7 (unknown origin) using ULight 4EBP1 peptide as substrate incubated for 2 hrs by FRET assay.
In assay [4] the target is T1, Tyrosine-protein kinase Tec (Homo sapiens, UniProt P42680).
T1 sequence (P42680 whole entry): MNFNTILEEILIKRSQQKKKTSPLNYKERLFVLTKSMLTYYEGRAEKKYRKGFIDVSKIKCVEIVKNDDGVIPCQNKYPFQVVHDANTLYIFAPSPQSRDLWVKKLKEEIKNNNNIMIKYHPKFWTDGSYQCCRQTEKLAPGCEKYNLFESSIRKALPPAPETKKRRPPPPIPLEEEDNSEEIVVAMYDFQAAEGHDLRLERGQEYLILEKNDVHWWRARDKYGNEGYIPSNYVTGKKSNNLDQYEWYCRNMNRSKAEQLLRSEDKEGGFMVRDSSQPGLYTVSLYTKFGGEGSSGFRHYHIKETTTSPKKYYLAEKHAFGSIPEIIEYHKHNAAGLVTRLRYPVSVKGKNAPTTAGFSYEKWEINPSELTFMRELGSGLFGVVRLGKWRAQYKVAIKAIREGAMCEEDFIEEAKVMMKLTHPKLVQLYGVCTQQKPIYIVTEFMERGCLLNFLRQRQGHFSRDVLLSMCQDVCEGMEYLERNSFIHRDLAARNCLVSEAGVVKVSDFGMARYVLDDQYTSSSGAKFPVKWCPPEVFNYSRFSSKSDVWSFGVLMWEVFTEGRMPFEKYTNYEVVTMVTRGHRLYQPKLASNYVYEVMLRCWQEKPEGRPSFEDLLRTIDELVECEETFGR
Description: Inhibition of human TEC incubated for 1 hr by HTRF assay.

Assay [5] concerns the target Insulin-like growth factor 1 receptor (Homo sapiens, UniProt P08069). Description: Inhibition of human IGF1R incubated for 1 hr by HTRF assay. In general terms: TR-FRET usually uses a lanthanide donor and a delayed reading to cut background.
In assay [6] the target is Cyclin-dependent kinase 5 (Homo sapiens, UniProt Q00535). Description: Inhibition of CDK5 (unknown origin) using ULight 4EBP1 peptide as substrate incubated for 2 hrs by FRET assay.
The target of assay [7] is Tyrosine-protein kinase Blk (Homo sapiens, UniProt P51451). In words: Inhibition of human BLK incubated for 1 hr by HTRF assay.
Assay [8] addresses Tyrosine-protein kinase Lyn (Homo sapiens, UniProt P07948). In words: Inhibition of human LYN incubated for 1 hr by HTRF assay.
The target in assay [9] is Cyclin-dependent kinase 3 (Homo sapiens, UniProt Q00526). Description: Inhibition of CDK3 (unknown origin) using ULight 4EBP1 peptide as substrate incubated for 2 hrs by FRET assay.
Assay [10] addresses Tyrosine-protein kinase HCK (Homo sapiens, UniProt P08631). Description: Inhibition of human HCK incubated for 1 hr by HTRF assay.
The target of assay [11] is T2, Cytoplasmic tyrosine-protein kinase BMX (Homo sapiens, UniProt P51813).
T2 sequence (P51813 whole entry): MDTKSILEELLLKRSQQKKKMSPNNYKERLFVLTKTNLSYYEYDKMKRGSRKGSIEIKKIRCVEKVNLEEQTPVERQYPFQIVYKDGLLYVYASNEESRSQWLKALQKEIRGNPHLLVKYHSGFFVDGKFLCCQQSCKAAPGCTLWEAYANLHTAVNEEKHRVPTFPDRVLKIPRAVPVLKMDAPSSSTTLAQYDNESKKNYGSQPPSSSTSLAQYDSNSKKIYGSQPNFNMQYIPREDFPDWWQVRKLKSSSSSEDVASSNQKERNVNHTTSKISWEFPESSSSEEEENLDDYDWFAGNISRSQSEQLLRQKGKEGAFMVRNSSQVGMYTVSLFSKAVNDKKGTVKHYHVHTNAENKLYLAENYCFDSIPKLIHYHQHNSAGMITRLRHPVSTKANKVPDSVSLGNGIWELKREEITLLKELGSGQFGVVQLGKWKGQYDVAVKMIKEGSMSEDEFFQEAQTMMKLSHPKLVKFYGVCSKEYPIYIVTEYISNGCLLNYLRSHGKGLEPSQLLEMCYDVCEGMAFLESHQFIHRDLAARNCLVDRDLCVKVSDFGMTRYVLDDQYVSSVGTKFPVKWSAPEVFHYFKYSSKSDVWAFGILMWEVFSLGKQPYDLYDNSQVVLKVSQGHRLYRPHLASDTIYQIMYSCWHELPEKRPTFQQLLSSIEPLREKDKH
Description: Inhibition of human BMX incubated for 1 hr by HTRF assay.

The target in assay [12] is Tyrosine-protein kinase BTK (Homo sapiens, UniProt Q06187). In words: Inhibition of human recombinant BTK incubated for 1 hr by HTRF assay.
The target in assay [13] is T3, Ephrin type-A receptor 1 (Homo sapiens, UniProt P21709).
T3 sequence (P21709 whole entry): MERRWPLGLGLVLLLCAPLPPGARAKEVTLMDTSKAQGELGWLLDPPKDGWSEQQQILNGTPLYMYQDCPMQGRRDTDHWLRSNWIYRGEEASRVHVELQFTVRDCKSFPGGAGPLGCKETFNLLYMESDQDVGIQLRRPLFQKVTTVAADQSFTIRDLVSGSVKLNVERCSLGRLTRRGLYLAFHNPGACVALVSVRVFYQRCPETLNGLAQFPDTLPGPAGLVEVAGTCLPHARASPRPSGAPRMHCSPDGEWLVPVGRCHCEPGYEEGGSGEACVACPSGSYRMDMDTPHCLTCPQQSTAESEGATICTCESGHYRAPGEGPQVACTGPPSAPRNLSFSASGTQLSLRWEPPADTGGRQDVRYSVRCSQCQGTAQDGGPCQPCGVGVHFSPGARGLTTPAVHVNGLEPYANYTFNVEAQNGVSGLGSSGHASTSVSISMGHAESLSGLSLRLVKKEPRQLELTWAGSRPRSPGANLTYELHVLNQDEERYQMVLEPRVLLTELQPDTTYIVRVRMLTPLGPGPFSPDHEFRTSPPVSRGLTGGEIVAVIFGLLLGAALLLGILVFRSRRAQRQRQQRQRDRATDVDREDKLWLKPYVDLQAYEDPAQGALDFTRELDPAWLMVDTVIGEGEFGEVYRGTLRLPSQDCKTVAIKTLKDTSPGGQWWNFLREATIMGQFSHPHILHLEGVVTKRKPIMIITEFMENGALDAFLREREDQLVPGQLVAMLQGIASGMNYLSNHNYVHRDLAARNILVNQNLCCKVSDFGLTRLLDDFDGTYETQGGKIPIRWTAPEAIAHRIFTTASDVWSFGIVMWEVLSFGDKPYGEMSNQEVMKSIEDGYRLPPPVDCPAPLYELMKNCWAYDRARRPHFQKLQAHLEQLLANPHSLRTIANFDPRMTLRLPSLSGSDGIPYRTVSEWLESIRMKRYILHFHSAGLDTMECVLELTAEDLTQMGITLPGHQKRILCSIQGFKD
In words: Inhibition of human EPHA1 incubated for 1 hr by HTRF assay.

For assay [14], the target named is T4, Aurora kinase A (Homo sapiens, UniProt O14965).
T4 sequence (O14965 whole entry): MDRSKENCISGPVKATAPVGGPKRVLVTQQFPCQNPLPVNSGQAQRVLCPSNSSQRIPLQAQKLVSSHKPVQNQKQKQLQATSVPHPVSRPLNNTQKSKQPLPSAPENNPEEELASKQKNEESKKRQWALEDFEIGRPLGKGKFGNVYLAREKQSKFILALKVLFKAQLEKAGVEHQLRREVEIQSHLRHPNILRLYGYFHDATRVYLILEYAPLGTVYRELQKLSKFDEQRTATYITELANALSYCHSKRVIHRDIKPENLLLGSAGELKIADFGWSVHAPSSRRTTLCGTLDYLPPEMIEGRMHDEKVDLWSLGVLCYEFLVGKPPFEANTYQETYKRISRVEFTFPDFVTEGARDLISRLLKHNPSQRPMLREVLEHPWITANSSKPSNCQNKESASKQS
In words: Inhibition of Aurora A (unknown origin).

The target in assay [15] is Cyclin-dependent kinase 1 (Homo sapiens, UniProt P06493). Description: Inhibition of CDK1 (unknown origin) using ULight 4EBP1 peptide as substrate incubated for 2 hrs by FRET assay.
The target of assay [16] is Epidermal growth factor receptor (Homo sapiens, UniProt P00533). Description: Inhibition of human EGFR incubated for 1 hr by HTRF assay.
In assay [17] the target is Cyclin-dependent kinase 6 (Homo sapiens, UniProt Q00534). In words: Inhibition of CDK6 (unknown origin) using ULight 4EBP1 peptide as substrate incubated for 2 hrs by FRET assay.
Assay [18] has as its target Cyclin-dependent kinase 2 (Homo sapiens, UniProt P24941). In words: Inhibition of CDK2 (unknown origin) using ULight 4EBP1 peptide as substrate incubated for 2 hrs by FRET assay.
For assay [19], the target named is Hepatocyte growth factor receptor (Homo sapiens, UniProt P08581). In words: Inhibition of human MET incubated for 1 hr by HTRF assay.
Assay [20] deals with Cyclin-dependent kinase 4 (Homo sapiens, UniProt P11802). Description: Inhibition of CDK4 (unknown origin) using ULight 4EBP1 peptide as substrate incubated for 2 hrs by FRET assay.

Structures are written as SMILES.

Regarding `Cn1ncc(-c2nc(N[C@H]3CC[C@H](N)CC3)ncc2Cl)c1CC1CC1` [BTX-A51], the IC50 – broadly, the concentration that inhibits the measured activity by half – in assay [1] was 18.6 nM; in assay [2], 158 nM; in [3], 272 nM.

Turning to `CC(=O)N[C@H]1CC[C@H](c2ncc(Cl)c(Nc3ccccc3S(=O)(=O)C(C)C)n2)CC1`, the IC50 in [4] was above 10000 nM; in assay [5] it was 2890 nM; in [6], 3680 nM; in [7] it was above 10000 nM; in assay [8] it was above 10000 nM; in [9], 370 nM. For the same compound, the half-inhibitory concentration (IC50) in assay [10] is above 10000 nM; in assay [11] it was above 10000 nM; in assay [12], above 10000 nM; in [13], 2480 nM; in assay [14] it was 1320 nM; in assay [15], above 10000 nM. Also, the IC50 in assay [16] was above 10000 nM; in assay [17], 1350 nM; in assay [18] it was 735 nM; in assay [19], above 10000 nM; in assay [20], 645 nM.

In assay [1], `COC[C@@H](C)N[C@H]1CC[C@H](Nc2cc(-c3cccc(NCC4(C#N)CCOCC4)n3)c(Cl)cn2)CC1` displayed a half-inhibitory concentration (IC50) of 3.57 nM.

In the case of `CN(C)C/C=C/C(=O)Nc1ccc(C(=O)Nc2cccc(Nc3ncc(Cl)c(-c4c[nH]c5ccccc45)n3)c2)cc1`, the IC50 in assay [2] stood at 30.7 nM.
